From paper PMC8286840, “Identifying SARS-CoV-2 antiviral compounds by screening for small molecule inhibitors of Nsp3 papain-like protease” (Biochemical Journal, 2021)
Where a name gives a salt, the structure may show the parent alone. Read-outs that look alike come from different tables or passages of the source.

Key:
[1] = molecular target: T1, SARS-CoV-2 PLpro (nsp3 1564–1878) (Severe acute respiratory syndrome coronavirus 2, UniProt P0DTD1); test: biochemical; set-up: FRET-quenched peptide (Pro3) cleavage by PLpro, 10 min pre-incubation, slope over 20 min, normalised to no-compound control; settings: low concentration screen, read-out: % of control remaining
[2] = molecular target: T1, SARS-CoV-2 PLpro (nsp3 1564–1878); test: biochemical; set-up: FRET-quenched peptide (Pro3) cleavage by PLpro, 10 min pre-incubation, slope over 20 min, normalised to no-compound control; settings: high concentration screen, read-out: % of control remaining

## CC(C)(Oc1ccc(CCNC(=O)c2ccc(Cl)cc2)cc1)C(=O)O [Bezafibrate]
[1]; Well no.=1660
  remaining activity at 1.25 µM: 98.3%
[2]; Well no.=1660
  remaining activity at 3.75 µM: 97.5%

## C[C@@H](O)[C@H]1C(=O)N2C(C(=O)[O-])=C(SC3Cn4cnc[n+]4C3)[C@H](C)[C@H]12 (stereo partly shown) [Biapenem]
[1]; Well no.=5197
  remaining activity at 1.25 µM: 99.1%
[2]; Well no.=5197
  remaining activity at 3.75 µM: 100%

## CC(O)(CS(=O)(=O)c1ccc(F)cc1)C(=O)Nc1ccc(C#N)c(C(F)(F)F)c1 (stereo not shown) [Bicalutamide]
[1]; Well no.=1860
  remaining activity at 1.25 µM: 97.5%
[2]; Well no.=1860
  remaining activity at 3.75 µM: 99.2%

## COC(=O)c1cc(OC)c2c(c1-c1c(CO)cc(OC)c3c1OCO3)OCO2 [Bicyclol]
[1]; Well no.=5916
  remaining activity at 1.25 µM: 107%
[2]; Well no.=5916
  remaining activity at 3.75 µM: 100%

## c1ccc(-c2ccc(C(c3ccccc3)n3ccnc3)cc2)cc1 (stereo not shown) [Bifonazole]
[1]; Well no.=2173
  remaining activity at 1.25 µM: 99.6%
[2]; Well no.=2173
  remaining activity at 3.75 µM: 101%

## CCOCCn1c(C2CCN(CCc3ccc(C(C)(C)C(=O)O)cc3)CC2)nc2ccccc21 [Bilastine]
[1]; Well no.=6188
  remaining activity at 1.25 µM: 101%
[2]; Well no.=6188
  remaining activity at 3.75 µM: 100%

## C=CC1=C(C)/C(=C/c2[nH]c(Cc3[nH]c(/C=C4\NC(=O)C(C)=C4C=C)c(C)c3CCC(=O)O)c(CCC(=O)O)c2C)NC1=O [Bilirubin]
[1]; Well no.=7013
  remaining activity at 1.25 µM: 103%
[2]; Well no.=7013
  remaining activity at 3.75 µM: 104%

## CC(C)(C)[C@]1(O)C[C@@H]2OC(=O)C[C@@]23C(=O)O[C@@H]2OC(=O)[C@H](O)[C@]213 [Bilobalide]
[1]; Well no.=3091
  remaining activity at 1.25 µM: 105%
[2]; Well no.=3091
  remaining activity at 3.75 µM: 105%

## CCNC(=O)CCC/C=C\C[C@@H]1[C@@H](/C=C/[C@@H](O)CCc2ccccc2)[C@H](O)C[C@@H]1O [Bimatoprost]
[1]; Well no.=5237
  remaining activity at 1.25 µM: 100%
[2]; Well no.=5237
  remaining activity at 3.75 µM: 101%

## COc1ccc(-c2coc3cc(O)cc(O)c3c2=O)cc1 [Biochanin A]
[1]; Well no.=3519
  remaining activity at 1.25 µM: 103%
[2]; Well no.=3519
  remaining activity at 3.75 µM: 101%

## O=C(O)CCCC[C@@H]1SC[C@@H]2NC(=O)N[C@@H]21 [Biotin (Vitamin B7)]
[1]; Well no.=5359
  remaining activity at 1.25 µM: 98.1%
[2]; Well no.=5359
  remaining activity at 3.75 µM: 95.3%

## N=C1S/C(=C\c2ccc(-c3ccc4c(c3)C(=O)NC4=O)o2)C(=O)N1c1ccc(Br)cc1 [Bioymifi]
[1]; Well no.=6390
  remaining activity at 1.25 µM: 96.5%
[2]; Well no.=6390
  remaining activity at 3.75 µM: 98%

## OC(CCN1CCCCC1)(c1ccccc1)C1C[C@@H]2C=C[C@H]1C2 (stereo partly shown) [Biperiden (Hydrochloride)]
[1]; Well no.=7434
  remaining activity at 1.25 µM: 97.8%
[2]; Well no.=7434
  remaining activity at 3.75 µM: 100%

## CC[C@H](NC(=O)[C@H](C)NC)C(=O)N1C[C@@H](O)C[C@H]1Cc1c(-c2[nH]c3cc(F)ccc3c2C[C@@H]2C[C@H](O)CN2C(=O)[C@H](CC)NC(=O)[C@H](C)NC)[nH]c2cc(F)ccc12 [Birinapant]
[1]; Well no.=6542
  remaining activity at 1.25 µM: 95%
[2]; Well no.=6542
  remaining activity at 3.75 µM: 75.1%

## O=C(/C=C/c1ccc(O)cc1)CC(=O)/C=C/c1ccc(O)cc1 [Bis demethoxycurcumin]
[1]; Well no.=3466
  remaining activity at 1.25 µM: 102%
[2]; Well no.=3466
  remaining activity at 3.75 µM: 103%

## CC(=O)Oc1ccc(C(c2ccc(OC(C)=O)cc2)c2ccccn2)cc1 [Bisacodyl]
[1]; Well no.=2175
  remaining activity at 1.25 µM: 105%
[2]; Well no.=2175
  remaining activity at 3.75 µM: 102%

## O=C(/C=C/c1ccc(O)cc1)CC(=O)/C=C/c1ccc(O)cc1 [Bisdemethoxycurcumin]
[1]; Well no.=6536
  remaining activity at 1.25 µM: 97.5%
[2]; Well no.=6536
  remaining activity at 3.75 µM: 92.4%

## O=C1NC(=O)C(c2c[nH]c3ccccc23)=C1c1c[nH]c2ccccc12 [Bisindolylmaleimide IV]
[1]; Well no.=2355
  remaining activity at 1.25 µM: 101%
[2]; Well no.=2355
  remaining activity at 3.75 µM: 99.7%

## CN(C)CCCn1cc(C2=C(c3c[nH]c4ccccc34)C(=O)NC2=O)c2ccccc21 [Bisindolylmaleimide I]
[1]; Well no.=2325
  remaining activity at 1.25 µM: 97.2%
[2]; Well no.=2325
  remaining activity at 3.75 µM: 98.8%

## CN1C(=O)C(c2c[nH]c3ccccc23)=C(c2c[nH]c3ccccc23)C1=O [Bisindolylmaleimide V]
[1]; Well no.=2339
  remaining activity at 1.25 µM: 92.9%
[2]; Well no.=2339
  remaining activity at 3.75 µM: 91.1%

## CC(C)NCC(O)COc1ccc(COCCOC(C)C)cc1 (stereo not shown) [Bisoprolol]
[1]; Well no.=5109
  remaining activity at 1.25 µM: 96.8%
[2]; Well no.=5109
  remaining activity at 3.75 µM: 98.6%

## Cc1c(N)nc([C@H](CC(N)=O)NC[C@H](N)C(N)=O)nc1C(=O)N[C@H](C(=O)N[C@H](C)[C@@H](O)[C@H](C)C(=O)N[C@H](C(=O)NCCc1nc(-c2nc(C(=O)NCCC[S+](C)C)cs2)cs1)[C@@H](C)O)[C@@H](O[C@@H]1O[C@@H](CO)[C@@H](O)[C@H](O)[C@@H]1O[C@H]1O[C@H](CO)[C@@H](O)[C@H](OC(N)=O)[C@@H]1O)c1cnc[nH]1 [Bleomycin sulfate]
[1]; Well no.=3558
  remaining activity at 1.25 µM: 107%
[2]; Well no.=3558
  remaining activity at 3.75 µM: 107%

## Cc1c(N)nc([C@H](CC(N)=O)NC[C@H](N)C(N)=O)nc1C(=O)N[C@H](C(=O)N[C@H](C)[C@@H](O)[C@H](C)C(=O)N[C@H](C(=O)NCCc1nc(-c2nc(C(=O)NCCC[S+](C)C)cs2)cs1)[C@@H](C)O)[C@@H](OC1OC(CO)C(O)C(O)C1OC1OC(CO)C(O)C(OC(N)=O)C1O)c1cnc[nH]1 (stereo partly shown) [Bleomycin]
[1]; Well no.=1890
  remaining activity at 1.25 µM: 89.5%
[2]; Well no.=1890
  remaining activity at 3.75 µM: 91.9%

## COc1cc2c(cc1O)C[C@H]1c3c(cc(O)c(OC)c3-2)CCN1C [Boldine]
[1]; Well no.=3166
  remaining activity at 1.25 µM: 102%
[2]; Well no.=3166
  remaining activity at 3.75 µM: 101%

## Cc1cc2c(OCC(CNC(C)(C)C)OC(=O)c3ccccc3)cccc2[nH]1 (stereo not shown) [Bopindolol]
[1]; Well no.=1892
  remaining activity at 1.25 µM: 96.2%
[2]; Well no.=1892
  remaining activity at 3.75 µM: 97.2%

## CC(C)C[C@H](NC(=O)[C@H](Cc1ccccc1)NC(=O)c1cnccn1)B(O)O [Bortezomib]
[1]; Well no.=1768
  remaining activity at 1.25 µM: 99.9%
[1]; Well no.=6302
  remaining activity at 1.25 µM: 98.1%
[2]; Well no.=1768
  remaining activity at 3.75 µM: 101%

## COc1ccccc1Oc1c(NS(=O)(=O)c2ccc(C(C)(C)C)cc2)nc(-c2ncccn2)nc1OCCO [Bosentan (hydrate)]
[1]; Well no.=6461
  remaining activity at 1.25 µM: 102%
[2]; Well no.=6461
  remaining activity at 3.75 µM: 101%

## COc1ccccc1Oc1c(NS(=O)(=O)c2ccc(C(C)(C)C)cc2)nc(-c2ncccn2)nc1OCCO [Bosentan Hydrate]
[1]; Well no.=5273
  remaining activity at 1.25 µM: 97.9%
[2]; Well no.=5273
  remaining activity at 3.75 µM: 95.6%

## COc1ccccc1Oc1c(NS(=O)(=O)c2ccc(C(C)(C)C)cc2)nc(-c2ncccn2)nc1OCCO [Bosentan]
[1]; Well no.=2246
  remaining activity at 1.25 µM: 93.3%
[1]; Well no.=7575
  remaining activity at 1.25 µM: 98.7%
[2]; Well no.=2246
  remaining activity at 3.75 µM: 95%
[2]; Well no.=7575
  remaining activity at 3.75 µM: 96.3%

## COc1cc(Nc2c(C#N)cnc3cc(OCCCN4CCN(C)CC4)c(OC)cc23)c(Cl)cc1Cl [Bosutinib]
[1]; Well no.=2883
  remaining activity at 1.25 µM: 97.8%
[2]; Well no.=2883
  remaining activity at 3.75 µM: 100%

## CSC(=S)NCc1c[nH]c2ccccc12 [Brassinin]
[1]; Well no.=3801
  remaining activity at 1.25 µM: 101%
[2]; Well no.=3801
  remaining activity at 3.75 µM: 101%

## C[C@H]1CCC/C=C/[C@@H]2C[C@H](O)C[C@H]2[C@H](O)/C=C/C(=O)O1 [Brefeldin A]
[1]; Well no.=3093
  remaining activity at 1.25 µM: 101%
[2]; Well no.=3093
  remaining activity at 3.75 µM: 100%
